pIC50: −log10 of the molar value.
Key:
[1] = system: K1 strain, a drug resistant strain of Plasmodium falciparum; assay: In vitro antimalarial assay (p-LDH, Malstat), K1 strain; format: cell-based; conditions: P. falciparum K1 (drug resistant), 72 h culture, p-LDH readout, read-out: Antimalarial activity (IC50 value), Strain K1
From the text: (§1) For the evaluation of the antimalarial activity of the compound of the present invention, K1 strain, a drug resistant strain of Plasmodium falciparum, and FCR3 strain, a drug sensitive strain thereof, which were generous gift from Professor Kiyoshi Kita of the Graduate School of Medicine and Faculty of Medicine, the University of Tokyo, were used to measure the in vitro antimalarial activity of the compound against those Plasmodium species according to the method established by Otoguro et al. (Otoguro, K., Kohana, A., Manabe, C., Ishiyama, A., Ui, H., Shiomi, K., Yamada, H. & Omura, S.: Potent antimalarial activity of polyether antibiotic, X-206. J. Antibiot., 54: 658-663, (2001)).
(§2) The parasites were grown based on a slightly modified method from the original method reported by Trager and Jensen (Trager, W. and Jensen, J.: Human malaria parasites in continuous culture, Science, 193: 673-677, (1976)), and those which were maintained and sub-cultured by the method were used. More specifically, in a culture dish, erythrocytes infected with the protozoa, which had been sub-cultured using a RPMI 1640 medium to which 10% human plasma had been added and fresh human erythrocytes, were diluted (hematocrit value: 2 to 5%, parasitaemia: 0.25 to 1%), and were cultured at 37° C. in a mixed gas of 3% O2-4% CO2-93% N2, and continuously cultured while changing the medium and adding fresh erythrocytes at 2- or 3-day intervals.
(§3) A drug susceptibility test was performed by modifying the method established by Desjardins et al. (Desjardins, R. E., Canfield, C. J., Haynes, D. E. and Chulay, J. D.: Quantitative assessment of antimalarial activity in vitro by a semiautomated microdilution technique. Antimicrob. Agents Chemother., 16: 710-718 (1979)). More specifically, 190 μL of a suspension of protozoa which had been precultured (hematocrit value: 2%, parasitaemia: 0.5 or 1%) and 10 μL of a solution of a test compound (5% DMSO solution) serially diluted so that the final concentration was 12.5 to 0.0001 μM were put in each well of a 96-well plate, and after mixing, the same was cultured for 72 hours in the above mixed gas.
(§4) For the measurement of the growth of protozoa, the method established by Makler (Makler, M. T., Rise, J. M., Williams, J. A., Bancroft, J. E., Piper, R. C., Gibbins, B. L. and Hinrichs, D. J.: Parasite lactate dehydrogenase as an Assay for Plasmodium falciparum drug sensitivity, Am. J. Med. Hyg., 48: 739-741 (1993)) was modified to colorimetrically determine parasite lactate dehydrogenase (p-LDH) using Malstat reagent (Flow Inc., USA).
(§5) More specifically, 72 hours after the culture, the 96-well plate was directly frozen at −20° C. for 18 hours and melted at 37° C. to hemolyze the protozoan-infected erythrocytes and destroy the protozoa to prepare a crude enzyme solution. 100 μL of Malstat reagent and 20 μL of the crude enzyme solution were added to and mixed in each well of another 96-well plate, and after reacting for 15 minutes at room temperature, 20 μL of a nitroblue tetrazolium 2 mg/mL phenazine ethosulfate 0.1 mg/mL=1:1 solution was added to the respective wells, and reaction was performed in dark conditions at room temperature for 2 hours.
(§6) The absorbance of the blue formazan product formed by the reaction was measured at a measurement wavelength of 655 nm by using a microplate reader (Labsystems, Finland) to colorimetrically determine the growth of the protozoa. The 50% growth inhibitory concentration for the protozoa of the compound (IC50 value) was determined based on the concentration-response curve of the compound.

[2] = system: FCR3 strain, a drug sensitive strain of Plasmodium falciparum; assay: In vitro antimalarial assay (p-LDH, Malstat), FCR3 strain; format: cell-based; conditions: P. falciparum FCR3 (drug sensitive), 72 h culture, p-LDH readout, read-out: Antimalarial activity (IC50 value), Strain FCR3
From the text: as §1, §2, §3, §4, §5, §6

| SMILES | pIC50 [1] | pIC50 [2] |
| --- | --- | --- |
| c1cn2ccc(Nc3cc(N4CCOCC4)nc(Nc4ccc(OC5CCCCC5)nc4)n3)cc2n1 [Example 81, N2-(6-(cyclohexyloxy)pyridin-3-yl)-N4-(imidazo[1,2-a]pyridin-7-yl)-6-morpholinopyrimidine-2,4-diamine] | 6.00 to 7.00 | 6.00 to 7.00 |
| Fc1cccnc1Nc1nc(Nc2ccn3ccnc3c2)cc(N2CCOCC2)n1 [Example 20, N2-(3-Fluoropyridin-2-yl)-N4-(imidazo[1,2-a]pyridin-7-yl)-6-morpholinopyrimidine-2,4-diamine] | 6.00 to 7.00 | 6.00 to 7.00 |
| COc1ncccc1Nc1nc(Nc2ccn3ccnc3c2)cc(N2CCOCC2)n1 [Example 5, N4-(Imidazo[1,2-a]pyridin-7-yl)-N2-(2-methoxypyridin-3-yl)-6-morpholinopyrimidine-2,4-diamine] | 5.00 to 6.00 | 5.00 to 6.00 |
| Cc1nc(Nc2nc(Nc3ccn4ccnc4c3)cc(N3CCOCC3)n2)cc(C2CC2)c1F [Example 53, N2-(4-Cyclopropyl-5-fluoro-6-methylpyridin-2-yl)-N4-(imidazo [1,2-a]pyridin-7-yl)-6-morpholinopyrimidine-2,4-diamine] | 6.00 to 7.00 | 6.00 to 7.00 |
| Cc1cc(C)nc(Nc2nc(Nc3ccn4ccnc4c3)cc(N3CCC(F)(F)C3)n2)c1 [Example 138, 6-(3,3-difluoropyrrolidin-1-yl)-N2-(4,6-dimethylpyridin-2-yl)-N4-(imidazo[1,2-a]pyridin-7-yl)pyrimidine-2,4-diamine] | 6.00 to 7.00 | > 7.00 |
| Fc1ncccc1Nc1nc(Nc2ccn3ccnc3c2)cc(N2CCOCC2)n1 [Example 11, N2-(2-Fluoropyridin-3-yl)-N4-(imidazo[1,2-a]pyridin-7-yl)-6-morpholinopyrimidine-2,4-diamine] | 5.00 to 6.00 | 6.00 to 7.00 |
| CCCc1cccc(Nc2nc(Nc3ccn4ccnc4c3)cc(N3CCOCC3)n2)n1 [Example 108, N4-(imidazo[1,2-a]pyridin-7-yl)-6-morpholino-N2-(6-propylpyridin-2-yl)pyrimidine-2,4-diamine] | 6.00 to 7.00 | > 7.00 |
| COc1cccc(Nc2nc(Nc3ccn4ccnc4c3)cc(N3CCCCC3)n2)n1 [Example 144, N4-(imidazo[1,2-a]pyridin-7-yl)-N2-(6-methoxypyridin-2-yl)-6-(piperidin-1-yl)pyrimidine-2,4-diamine] | 6.00 to 7.00 | 6.00 to 7.00 |
| Cc1ccc(Nc2nc(Nc3ccn4ccnc4c3)cc(N3CCN(C)CC3)n2)nc1 [Example 27, N4-(imidazo[1,2-a]pyridin-7-yl)-6-(4-methylpiperazin-1-yl)-N 2-(5-methylpyridin-2-yl) pyrimidine-2,4-diamine] | 6.00 to 7.00 | 5.00 to 6.00 |
| CCOc1ccc(Nc2nc(Nc3ccn4ccnc4c3)cc(N3CCCCC3)n2)cn1 [Example 51, N2-(6-ethoxypyridin-3-yl)-N4-(imidazo[1,2-a]pyridin-7-yl)-6-(piperidin-1-yl)pyrimidine-2,4-diamine] | 5.00 to 6.00 | 6.00 to 7.00 |
| CCCCc1cc(C)cc(Nc2nc(Nc3ccn4ccnc4c3)cc(N3CCCCC3)n2)n1 [Example 187, N2-(6-butyl-4-methylpyridin-2-yl)-N4-(imidazo[1,2-a]pyridin-7-yl)-6-(piperidin-1-yl) pyrimidine-2,4-diamine] | 6.00 to 7.00 | 6.00 to 7.00 |
| CCOc1cc(Nc2ccn3ccnc3c2)nc(Nc2ccc(OC(C)C)nc2)n1 [Example 57, 6-Ethoxy-N4-(Imidazo[1,2-a]pyridin-7-yl)-N2-(6-isopropoxypyridin-3-yl)pyrimidine-2,4-diamine] | 5.00 to 6.00 | 6.00 to 7.00 |
| Cc1cc(C)nc(Nc2nc(Nc3ccn4ccnc4c3)cc(N3CCCC(C)C3)n2)c1 (centres unmarked) [Example 184, N2-(4,6-dimethylpyridin-2-yl)-N4-(imidazo[1,2-a]pyridin-7-yl)-6-(3-methylpiperidin-1-yl) pyrimidine-2,4-diamine] | 6.00 to 7.00 | 6.00 to 7.00 |
| Cc1cc(C)nc(Nc2nc(Nc3ccn4ccnc4c3)cc(-n3ccnc3)n2)c1 [Example 46] | 6.00 to 7.00 | > 7.00 |
| CCOc1cc(Nc2ccn3ccnc3c2)nc(Nc2ccc(C)cn2)n1 [Example 38, 6-ethoxy-N4-(imidazo[1,2-a]pyridin-7-yl)-N2-(5-methylpyridin-2-yl)pyrimidine-2,4-diamine] | 6.00 to 7.00 | 6.00 to 7.00 |

More lines, now with the values ahead:

| pIC50 [1] | pIC50 [2] | SMILES |
| --- | --- | --- |
| 6.00 to 7.00 | > 7.00 | CCOc1ccnc(Nc2nc(Nc3ccn4ccnc4c3)cc(N3CCCC3)n2)c1 [Example 145, N2-(4-ethoxypyridin-2-yl)-N4-(imidazo[1,2-a]pyridin-7-yl)-6-(pyrrolidin-1-yl)pyrimidine-2,4-diamine] |
| 6.00 to 7.00 | 6.00 to 7.00 | Cc1cc(Cl)cc(Nc2nc(Nc3ccn4ccnc4c3)cc(N3CCCCC3)n2)n1 [Example 205, N2-(4-chloro-6-methylpyridin-2-yl)-N4-(imidazo[1,2-a]pyridin-7-yl)-6-(piperidin-1-yl) pyrimidine-2,4-diamine] |
| > 7.00 | > 7.00 | COCCc1cccc(Nc2nc(Nc3ccn4ccnc4c3)cc(N3CCCC3)n2)n1 [Example 159, N4-(imidazo[1,2-a]pyridin-7-yl)-N2-[6-(2-methoxyethyl)pyridin-2-yl]-6-(pyrrolidin-1-yl)pyrimidine-2,4-diamine] |
| > 7.00 | > 7.00 | CCOc1ccc(Nc2nc(Nc3ccn4ccnc4c3)cc(N3CCOCC3)n2)cn1 [Example 7, N2-(6-Ethoxypyridin-3-yl)-N4-(imidazo[1,2-a]pyridin-7-yl)-6-morpholinopyrimidine-2,4-diamine] |
| > 7.00 | > 7.00 | CCc1ccnc(Nc2nc(Nc3ccn4ccnc4c3)cc(N3CCC(N4CCOCC4)CC3)n2)c1 [Example 112, N2-(4-ethylpyridin-2-yl)-N4-(imidazo[1,2-a]pyridin-7-yl)-6-(4-morpholinopiperidin-1-yl)pyrimidine-2,4-diamine] |
| > 7.00 | > 7.00 | Cc1cc(C)nc(Nc2nc(Nc3ccn4ccnc4c3)cc(N3CC=CC3)n2)c1 [Example 139, 6-(2,5-dihydro-1H-pyrrol-1-yl)-N2-(4,6-dimethylpyridin-2-yl)-N4-(imidazo[1,2-a]pyridin-7-yl)pyrimidine-2,4-diamine] |
| > 7.00 | > 7.00 | Cc1cc(C)nc(Nc2nc(Nc3ccn4ccnc4c3)cc(N3CCC(N4CCCCC4)CC3)n2)c1 [Example 133, 6-([1,4′-bipiperidin]-1′-yl)-N2-(4,6-dimethylpyridin-2-yl)-N4-(imidazo[1,2-a]pyridin-7-yl)pyrimidine-2,4-diamine] |
| > 7.00 | > 7.00 | Cc1ccc(Nc2nc(Nc3ccn4ccnc4c3)cc(N3CCOCC3)n2)nc1C [Example 87, N2-(5,6-dimethylpyridin-2-yl)-N4-(imidazo[1,2-a]pyridin-7-yl)-6-morpholinopyrimidine-2,4-diamine] |
| > 7.00 | > 7.00 | Cc1cc(C)nc(Nc2nc(Nc3ccn4ccnc4c3)cc(N3C[C@@H](C)[C@H](C)C3)n2)c1 (relative stereo) [Example 193, N2-(4,6-dimethylpyridin-2-yl)-6-[trans-3,4-dimethylpyrrolidin-1-yl]-N4-(imidazo[1,2-a]pyridin-7-yl)pyrimidine-2,4-diamine] |
| > 7.00 | > 7.00 | CCCCc1cccc(Nc2nc(Nc3ccn4ccnc4c3)cc(N3CCOCC3)n2)n1 [Example 109, N2-(6-butylpyridin-2-yl)-N4-(imidazo[1,2-a]pyridin-7-yl)-6-morpholinopyrimidine-2,4-diamine] |
